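Values below derive from 48-hour exposures of cells grown in 96-well plates, with endpoints linearly interpolated between the two concentrations bracketing the appropriate inhibition level. GI50: concentration for 50% inhibition of growth. Definition used: TGI = concentration required for complete inhibition of growth.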
Assays:
Experiment in all cases: DTP human tumour cell line panel, 48 h
SK-MEL-28 melanoma = tested on: SK-MEL-28 melanoma
NCI-H23 lung = tested on: NCI-H23 lung
SK-MEL-5 melanoma = tested on: SK-MEL-5 melanoma
LOX IMVI melanoma = tested on: LOX IMVI melanoma
HCT-15 colon = tested on: HCT-15 colon
COLO 205 colon = tested on: COLO 205 colon
A549 NSCLC = tested on: A549 NSCLC
OVCAR-4 ovarian = tested on: OVCAR-4 ovarian
MOLT-4 leukemia = tested on: MOLT-4 leukemia
HCC-2998 colon = tested on: HCC-2998 colon
HL-60(TB) leukemia = tested on: HL-60(TB) leukemia
OVCAR-5 ovarian = tested on: OVCAR-5 ovarian
SF-268 CNS = tested on: SF-268 CNS
HS 578T breast = tested on: HS 578T breast
UO-31 renal = tested on: UO-31 renal
SK-OV-3 ovarian = tested on: SK-OV-3 ovarian
NCI-H460 lung = tested on: NCI-H460 lung
HT29 colon = tested on: HT29 colon
NCI/ADR-RES ovarian = tested on: NCI/ADR-RES ovarian
HOP-92 NSCLC = tested on: HOP-92 NSCLC
SF-295 CNS = tested on: SF-295 CNS
PC-3 prostate = tested on: PC-3 prostate
NCI-H226 lung = tested on: NCI-H226 lung
IGROV1 ovarian = tested on: IGROV1 ovarian
K-562 leukemia = tested on: K-562 leukemia
BT-549 breast = tested on: BT-549 breast
MCF7 breast = tested on: MCF7 breast
CCRF-CEM leukemia = tested on: CCRF-CEM leukemia
M14 melanoma = tested on: M14 melanoma
MDA-MB-231 breast = tested on: MDA-MB-231 breast
RPMI-8226 leukemia = tested on: RPMI-8226 leukemia
SN12C renal = tested on: SN12C renal
EKVX NSCLC = tested on: EKVX NSCLC
OVCAR-3 ovarian = tested on: OVCAR-3 ovarian
ACHN renal = tested on: ACHN renal
SR leukemia = tested on: SR leukemia
786-0 renal = tested on: 786-0 renal
T-47D breast = tested on: T-47D breast
DU-145 prostate = tested on: DU-145 prostate
OVCAR-8 ovarian = tested on: OVCAR-8 ovarian
TK-10 renal = tested on: TK-10 renal
SNB-19 CNS = tested on: SNB-19 CNS
SW-620 colon = tested on: SW-620 colon
CAKI-1 renal = tested on: CAKI-1 renal
MDA-MB-435 = tested on: MDA-MB-435
SK-MEL-2 melanoma = tested on: SK-MEL-2 melanoma
A498 renal = tested on: A498 renal
SNB-75 CNS = tested on: SNB-75 CNS
U251 CNS = tested on: U251 CNS
UACC-257 melanoma = tested on: UACC-257 melanoma
HCT-116 colon = tested on: HCT-116 colon
KM12 colon = tested on: KM12 colon
UACC-62 melanoma = tested on: UACC-62 melanoma
HOP-62 NSCLC = tested on: HOP-62 NSCLC
RXF 393 renal = tested on: RXF 393 renal
MALME-3M melanoma = tested on: MALME-3M melanoma
NCI-H522 lung = tested on: NCI-H522 lung
SF-539 CNS = tested on: SF-539 CNS

Cc1cc2c(c(C=NCc3ccccc3)c1)OC1(C=C2)Oc2ccccc2C(=O)N1C (configuration not stated)
TGI (SK-MEL-28 melanoma): > 100 µM
TGI (NCI-H23 lung): 69.6 µM
TGI (SK-MEL-5 melanoma): 50.3 µM
TGI (LOX IMVI melanoma): 34.5 µM
TGI (HCT-15 colon): 45.4 µM
TGI (COLO 205 colon): 39.8 µM
TGI (A549 NSCLC): > 100 µM
TGI (OVCAR-4 ovarian): 69.9 µM
TGI (MOLT-4 leukemia): 36.5 µM
TGI (HCC-2998 colon): 57.4 µM
TGI (HL-60(TB) leukemia): 60.2 µM
TGI (OVCAR-5 ovarian): 56 µM
TGI (SF-268 CNS): 76.3 µM
TGI (HS 578T breast): 63.6 µM
TGI (UO-31 renal): 40.9 µM
TGI (SK-OV-3 ovarian): > 100 µM
TGI (NCI-H460 lung): 55.4 µM
TGI (HT29 colon): 51.7 µM
TGI (NCI/ADR-RES ovarian): 48 µM
TGI (HOP-92 NSCLC): 43 µM
TGI (SF-295 CNS): > 100 µM
TGI (PC-3 prostate): 75.3 µM
TGI (NCI-H226 lung): 42.9 µM
TGI (IGROV1 ovarian): 68.1 µM
TGI (K-562 leukemia): > 100 µM
TGI (BT-549 breast): 62.5 µM
TGI (MCF7 breast): > 100 µM
TGI (CCRF-CEM leukemia): 36.3 µM
TGI (M14 melanoma): > 100 µM
TGI (MDA-MB-231 breast): 78.1 µM
TGI (RPMI-8226 leukemia): 50.4 µM
TGI (SN12C renal): 78 µM
TGI (EKVX NSCLC): 57.6 µM
TGI (OVCAR-3 ovarian): > 100 µM
TGI (ACHN renal): 69.7 µM
TGI (SR leukemia): 49.9 µM
TGI (786-0 renal): > 100 µM
TGI (T-47D breast): 45.9 µM
TGI (DU-145 prostate): 70.4 µM
TGI (OVCAR-8 ovarian): 35.6 µM
TGI (TK-10 renal): 79.7 µM
TGI (SNB-19 CNS): > 100 µM
TGI (SW-620 colon): > 100 µM
TGI (CAKI-1 renal): 66.5 µM
TGI (MDA-MB-435): 78.4 µM
TGI (SK-MEL-2 melanoma): 62.6 µM
TGI (A498 renal): 77.6 µM
TGI (SNB-75 CNS): 75.8 µM
TGI (U251 CNS): 80.3 µM
TGI (UACC-257 melanoma): 67 µM
TGI (HCT-116 colon): 61.6 µM
TGI (KM12 colon): 64.5 µM
TGI (UACC-62 melanoma): 48.2 µM
TGI (HOP-62 NSCLC): > 100 µM
TGI (RXF 393 renal): 55.9 µM

c1cnc2[nH]cc(-c3csc(-c4cn(CCCCN5CCOCC5)c5ccccc45)n3)c2c1
GI50 (SK-MEL-28 melanoma): 1.81 µM
TGI (SK-MEL-28 melanoma): 3.3 µM
GI50 (NCI-H23 lung): 2.04 µM
TGI (NCI-H23 lung): 4.49 µM
GI50 (SK-MEL-5 melanoma): 1.73 µM
TGI (SK-MEL-5 melanoma): 3.16 µM
GI50 (LOX IMVI melanoma): 1.74 µM
TGI (LOX IMVI melanoma): 3.26 µM
GI50 (MALME-3M melanoma): 1.32 µM
TGI (MALME-3M melanoma): 2.96 µM
GI50 (HCT-15 colon): 1.81 µM
TGI (HCT-15 colon): 3.51 µM
GI50 (COLO 205 colon): 1.73 µM
TGI (COLO 205 colon): 3.51 µM
GI50 (A549 NSCLC): 1.89 µM
TGI (A549 NSCLC): 4.13 µM
GI50 (OVCAR-4 ovarian): 2.06 µM
TGI (OVCAR-4 ovarian): 5.69 µM
GI50 (MOLT-4 leukemia): 1.82 µM
TGI (MOLT-4 leukemia): 3.67 µM
GI50 (HCC-2998 colon): 1.74 µM
TGI (HCC-2998 colon): 3.26 µM
GI50 (HL-60(TB) leukemia): 1.96 µM
TGI (HL-60(TB) leukemia): 3.92 µM
GI50 (OVCAR-5 ovarian): 1.82 µM
TGI (OVCAR-5 ovarian): 3.45 µM
GI50 (SF-268 CNS): 1.76 µM
TGI (SF-268 CNS): 3.71 µM
GI50 (HS 578T breast): 1.77 µM
TGI (HS 578T breast): 4.98 µM
GI50 (UO-31 renal): 1.15 µM
TGI (UO-31 renal): 2.53 µM
GI50 (SK-OV-3 ovarian): 2.34 µM
TGI (SK-OV-3 ovarian): 5.74 µM
GI50 (NCI/ADR-RES ovarian): 2.04 µM
TGI (NCI/ADR-RES ovarian): 4.71 µM
GI50 (HOP-92 NSCLC): 1.43 µM
TGI (HOP-92 NSCLC): 3.13 µM
GI50 (SF-295 CNS): 1.92 µM
TGI (SF-295 CNS): 4.04 µM
GI50 (PC-3 prostate): 1.59 µM
TGI (PC-3 prostate): 4.01 µM
GI50 (NCI-H522 lung): 1.95 µM
TGI (NCI-H522 lung): 3.77 µM
GI50 (NCI-H226 lung): 2.29 µM
TGI (NCI-H226 lung): 8.23 µM
GI50 (IGROV1 ovarian): 1.43 µM
TGI (IGROV1 ovarian): 4.25 µM
GI50 (K-562 leukemia): 2.02 µM
TGI (K-562 leukemia): 3.93 µM
GI50 (BT-549 breast): 2.13 µM
TGI (BT-549 breast): 5.19 µM
GI50 (MCF7 breast): 1.56 µM
TGI (MCF7 breast): 3.57 µM
GI50 (CCRF-CEM leukemia): 1.98 µM
TGI (CCRF-CEM leukemia): 4.03 µM
GI50 (M14 melanoma): 1.78 µM
TGI (M14 melanoma): 3.62 µM
GI50 (MDA-MB-231 breast): 1.58 µM
TGI (MDA-MB-231 breast): 3.27 µM
GI50 (RPMI-8226 leukemia): 1.83 µM
TGI (RPMI-8226 leukemia): 4.29 µM
GI50 (SN12C renal): 2.98 µM
TGI (SN12C renal): 10.8 µM
GI50 (SF-539 CNS): 1.71 µM
TGI (SF-539 CNS): 3.13 µM
GI50 (EKVX NSCLC): 2.07 µM
TGI (EKVX NSCLC): 4.74 µM
GI50 (OVCAR-3 ovarian): 1.64 µM
TGI (OVCAR-3 ovarian): 3.17 µM
GI50 (786-0 renal): 1.85 µM
TGI (786-0 renal): 3.33 µM
GI50 (T-47D breast): 1.33 µM
TGI (T-47D breast): 3.9 µM
GI50 (DU-145 prostate): 2.12 µM
TGI (DU-145 prostate): 4.28 µM
GI50 (TK-10 renal): 2.77 µM
TGI (TK-10 renal): 7.24 µM
GI50 (SNB-19 CNS): 1.76 µM
TGI (SNB-19 CNS): 3.49 µM
GI50 (SW-620 colon): 1.77 µM
TGI (SW-620 colon): 3.54 µM
GI50 (CAKI-1 renal): 1.74 µM
TGI (CAKI-1 renal): 3.52 µM
GI50 (MDA-MB-435): 1.72 µM
TGI (MDA-MB-435): 3.2 µM
GI50 (SK-MEL-2 melanoma): 1.94 µM
TGI (SK-MEL-2 melanoma): 3.87 µM
GI50 (SNB-75 CNS): 1.19 µM
TGI (SNB-75 CNS): 2.54 µM
GI50 (UACC-257 melanoma): 1.84 µM
TGI (UACC-257 melanoma): 3.53 µM
GI50 (HCT-116 colon): 1.65 µM
TGI (HCT-116 colon): 3.05 µM
GI50 (KM12 colon): 1.72 µM
TGI (KM12 colon): 3.34 µM
GI50 (UACC-62 melanoma): 1.79 µM
TGI (UACC-62 melanoma): 3.8 µM
GI50 (HOP-62 NSCLC): 1.7 µM
TGI (HOP-62 NSCLC): 3.7 µM
GI50 (RXF 393 renal): 1.67 µM
TGI (RXF 393 renal): 3.31 µM
